These results are taken from US20160075653A1, “NEMATICIDAL N-(PHENYLCYCLOALKYL)CARBOXAMIDES AND N-(PHENYLCYCLOALKYL)THIOCARBOXAMIDES” (BAYER CROPSCIENCE AKTIENGESELLSCHAFT, priority 2013, published 2016).

The nature of one data set: Measurement of log P values by HPLC on reversed phase columns (methods [a] pH 2.3, [b] pH 2.7, [c] pH 7.8). It counts as physicochemical. The following applies: HPLC on reversed phase column, method [b], pH 2.7. Put shortly: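 Determined per EEC Directive 79/831 Annex V.A8 by reversed-phase HPLC, 10-95% acetonitrile gradient: [a] pH 2.3, 0.1% phosphoric acid; [b] LC-MS, pH 2.7, 0.1% formic acid; [c] LC-MS, pH 7.8, 0.001 molar ammonium hydrogen carbonate. Calibrated with C3-C16 alkan-2-ones by retention-time interpolation.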
On to `O=C(N[C@@H]1C[C@@H]1c1ccc(Cl)cc1Cl)c1cncnc1C(F)(F)F` (relative stereo) [Example 610], for which the logP is 2.89^[b]. For the compound `O=C(N[C@@H]1CC[C@H]1c1ccc(Br)cc1C(F)(F)F)c1nccnc1C(F)(F)F` (relative stereo) [Example 660], the logP is 3.97^[b]. In the case of `O=C(N[C@@H]1CC[C@H]1c1ccc(Cl)cc1Cl)c1sccc1I` (relative stereo) [Example 670], the logP was 4.51^[b]. Still for that read-out and setting: the result for `O=C(N[C@@H]1C[C@@H]1c1ccc(Cl)cc1Cl)c1ccc(Cl)cc1Cl` (relative stereo) [Example 613] reads 3.82^[b]. In the case of `O=C(N[C@@H]1CC[C@H]1c1cccc(F)c1C(F)(F)F)c1c(F)cccc1F` (relative stereo) [Example 640], the logP was 3.36^[b]. Regarding `O=C(N[C@@H]1CC[C@@H]1c1ccc(Cl)cc1C(F)(F)F)c1ncccc1Cl` (relative stereo) [Example 699], the logP is 3.49^[b]. In the case of `O=C(N[C@@H]1CC[C@H]1c1ccc(Cl)cc1Cl)c1nccnc1Cl` (relative stereo) [Example 675], the logP is 3.43^[b].

On to `O=C(N[C@@H]1CC[C@@H]1c1ccc(Cl)cc1C(F)(F)F)c1ccc(Cl)cc1Cl` (relative stereo) [Example 705], for which the logP is 4.27^[b]. For `O=C(N[C@@H]1CC[C@H]1c1ccc(Cl)cc1C(F)(F)F)c1ccccc1` (relative stereo) [Example 679], the logP was 3.87^[b]. Regarding `O=C(N[C@@H]1CC[C@H]1c1ccc(Cl)cc1C(F)(F)F)c1cccc(Cl)c1` (relative stereo) [Example 708], the logP is 4.46^[b]. On the same count and under the same terms, the same measure for `Cc1nc(C(F)(F)F)c(C(=O)N[C@@H]2CC[C@@H]2c2ccc(Cl)cc2Cl)s1` (relative stereo) [Example 669]: 3.58^[b].

For `O=C(N[C@@H]1CC[C@@H]1c1ccc(Cl)cc1Cl)c1ccccc1[N+](=O)[O-]` (relative stereo) [Example 661], the logP was 3.19^[b]. With `O=C(N[C@@H]1CC[C@@H]1c1ccc(Cl)cc1Cl)c1cccnc1` (relative stereo) [Example 673], the logP was 2.23^[b]. `O=C(N[C@@H]1CC[C@H]1c1ccccc1C(F)(F)F)c1sccc1I` (relative stereo) [Example 635]: the logP is 3.99^[b].

The same data set, now with this note: HPLC on reversed phase column, method [c], pH 7.8.
Turning to `O=C(N[C@@H]1C[C@@H]1c1ccc(Cl)cc1Cl)c1cncnc1C(F)(F)F` (relative stereo) [Example 610], the logP was 2.87^[c];.

Consider `O=C(N[C@@H]1CC[C@H]1c1ccc(Br)cc1C(F)(F)F)c1nccnc1C(F)(F)F` (relative stereo) [Example 660], for which the logP was 3.87^[c];. With `O=C(N[C@@H]1C[C@@H]1c1ccc(Cl)cc1Cl)c1ccc(Cl)cc1Cl` (relative stereo) [Example 613], the logP is 3.76^[c];.

The data set is the same for the next values; noted with them: HPLC on reversed phase columns, method [b], pH 2.7.
As for `Cc1ncncc1C(=O)N[C@@H]1CCC[C@@H]1c1ccc(F)c(F)c1` (relative stereo) [Example 65], the logP is 2.15^[b]. On the same count and under the same terms, the result for `CCOc1nn(C)cc1C(=O)N[C@@H]1C[C@H]1c1ccccc1` (relative stereo) [Example 43] reads 2.36^[b]. Turning to `Cn1cc(C(=O)NC2CC2c2ccc(Br)cc2)c(C(F)(F)F)n1` (centres unmarked) [Example 25], the logP was 3.23^[b]. On the same count and under the same terms, the result for `CC(F)c1nn(C)cc1C(=O)N[C@@H]1CCC[C@@H]1c1ccc(F)c(F)c1` (relative stereo) [Example 53] reads 2.62^[b]; that for `Cc1nn(C)c(C)c1C(=O)NC1CC1c1ccc(Br)cc1` (centres unmarked) [Example 21], 3.26^[b]. The same measure, in the same setting: the same measure for `O=C(N[C@@H]1CCC[C@@H]1c1ccc(F)c(F)c1)c1ccccc1I` (relative stereo) [Example 58]: 3.31^[b]; for `O=C(N[C@@H]1CCC[C@@H]1c1ccc(F)c(F)c1)c1ncccc1C(F)(F)F` (relative stereo) [Example 90]: 3.31^[b].

Still in this data set, the particulars now being: HPLC reversed phase, method [b] (pH 2.7).
Regarding `O=C(N[C@@H]1CCC[C@@H]1c1ccc(C(F)(F)F)cc1)c1cccnc1Cl` (relative stereo) [Example 315], the logP was 3.04^[b].

On to `CC(C)Oc1ccc([C@H]2CCC[C@H]2NC(=O)c2ccccc2Br)cc1` (relative stereo) [Example 327], for which the logP was 3.81^[b].

For the compound `O=C(N[C@@H]1CCC[C@@H]1c1ccc(C(F)(F)F)cc1)c1ccccc1Br` (relative stereo) [Example 303], the logP is 3.73^[b]. The same measure, in the same setting: the same measure for `O=C(NC1CCC1c1ccccc1Cl)c1ccccc1` (centres unmarked) [Example 447]: 3.14^[b]; for `O=C(NC1CCCCC1c1c(F)cccc1F)c1ccccc1I` (centres unmarked) [Example 400]: 3.84^[b]; for `Cc1nn(C)cc1C(=O)NC1CCCCC1c1ccc(Cl)cc1Cl` (centres unmarked) [Example 416]: 3.19^[b]. On the same count and under the same terms, the same measure for `O=C(N[C@@H]1C[C@@H]1c1ccc(Cl)cc1Cl)c1ccccc1I` (relative stereo) [Compound 578]: 3.43^[b]; for `Cn1cc(C(=O)NC2CCC2c2ccc(F)cc2C(F)(F)F)c(C(F)F)n1` (centres unmarked) [Example 484]: 3.02^[b]; for `O=C(NC1CCC1c1ccccc1Cl)c1cccc(Cl)c1` (centres unmarked) [Example 445]: 3.75^[b]. On to `O=C(N[C@@H]1C[C@@H]1c1ccc(Cl)cc1Cl)c1c(F)cccc1F` (relative stereo) [Compound 581], for which the logP is 3.44^[b]. With `O=C(N[C@@H]1CC[C@H]1c1ccc(F)cc1C(F)(F)F)c1ccc(Cl)cc1` (relative stereo) [Example 507], the logP is 3.94^[b].

With `O=C(NC1CCC1c1ccccc1Cl)c1cccc(Cl)c1` (centres unmarked) [Example 448], the logP was 3.36^[b]. In the case of `O=C(N[C@@H]1CC[C@@H]1c1c(F)cccc1C(F)(F)F)c1cccnc1` (relative stereo) [Example 562], the logP is 2.16^[b]. On to `CC(C)Oc1ccc([C@H]2CCC[C@H]2NC(=O)c2ccccn2)cc1` (relative stereo) [Example 334], for which the logP is 2.41^[b]. Turning to `O=C(N[C@@H]1CC[C@@H]1c1cc(F)ccc1C(F)(F)F)c1ccc(Cl)cc1Cl` (relative stereo) [Example 557], the logP is 3.85^[b].

Take `O=C(N[C@@H]1CC[C@@H]1c1c(F)cccc1C(F)(F)F)c1ccc(Cl)cc1` (relative stereo) [Example 536]: the logP was 3.72^[b]. Still for that read-out and setting: the result for `O=C(NC1CCCCC1c1ccccc1C(F)(F)F)c1c(F)cccc1F` (centres unmarked) [Example 386] reads 3.80^[b]; that for `O=C(N[C@@H]1CC[C@H]1c1ccccc1Cl)c1ccccc1[N+](=O)[O-]` (relative stereo) [Example 547], 2.92^[b]; that for `CC(C)Oc1ccc([C@H]2CCC[C@H]2NC(=O)c2ccccc2[N+](=O)[O-])cc1` (relative stereo) [Example 318], 3.30^[b].

Regarding `O=C(NC1CCCCC1c1ccc(Cl)cc1)c1cccnc1Cl` (centres unmarked) [Example 370], the logP was 2.99^[b].

With `O=C(NC1CCCC1c1ccccc1Cl)c1cccnc1Cl` (centres unmarked) [Example 293], the logP was 2.64^[b]. Still for that read-out and setting: the result for `O=C(NC1CCC1c1c(F)cccc1F)c1cccc(Cl)c1` (centres unmarked) [Example 442] reads 3.26^[b]; that for `Cc1nc(C)c(C(=O)NC2CCCC2c2ccc(Cl)cc2Cl)s1` (centres unmarked) [Example 354], 3.24^[b]. In the case of `O=C(NC1CCCC1c1ccc(Cl)cc1)c1ccccc1C(F)(F)F` (centres unmarked) [Example 279], the logP was 3.64^[b].

For `O=C(NC1CCC1c1ccc(Cl)cc1Cl)c1ccc(Cl)cc1` (centres unmarked) [Example 453], the logP was 3.85^[b]. The same measure, in the same setting: the result for `Cc1nc(C(F)(F)F)c(C(=O)N[C@@H]2C[C@@H]2c2ccc(Cl)cc2Cl)s1` (relative stereo) [Example 568] reads 3.29^[b]; that for `O=C(NC1CCCCC1c1ccc(Cl)cc1Cl)c1c(F)cccc1F` (centres unmarked) [Example 411], 4.26^[b]. Same read-out and setting: the result for `O=C(N[C@@H]1CC[C@@H]1c1ccc(F)cc1C(F)(F)F)c1ccc(Cl)cc1Cl` (relative stereo) [Example 506] reads 3.85^[b].

Still in this data set, the particulars now being: HPLC reversed phase, method [c] pH 7.8.
As to `O=C(N[C@@H]1CCC[C@@H]1c1ccc(C(F)(F)F)cc1)c1cccnc1Cl` (relative stereo) [Example 315], the logP was 2.98^[c];. Same read-out and setting: the result for `CC(C)Oc1ccc([C@H]2CCC[C@H]2NC(=O)c2ccccc2Br)cc1` (relative stereo) [Example 327] reads 3.74^[c];. On the same count and under the same terms, the same measure for `O=C(N[C@@H]1CCC[C@@H]1c1ccc(C(F)(F)F)cc1)c1ccccc1Br` (relative stereo) [Example 303]: 3.68^[c];. The same measure, in the same setting: the result for `CC(C)Oc1ccc([C@H]2CCC[C@H]2NC(=O)c2ccccn2)cc1` (relative stereo) [Example 334] reads 2.46^[c];; that for `CC(C)Oc1ccc([C@H]2CCC[C@H]2NC(=O)c2ccccc2[N+](=O)[O-])cc1` (relative stereo) [Example 318], 3.25^[c];.

The same data set, now with this note: HPLC-MS, method letter not given.
In general, log P refers to a log measure of how a compound divides between an organic and an aqueous phase. A lower log P goes with a more hydrophilic compound. `Cn1cc(C(=O)NC2CCC2c2ccc(Cl)cc2Cl)c(C(F)F)n1` (single isomer, unassigned) [Preparation Example 2 trans-Isomer, trans-N-[2-(2,4-dichlorophenyl)cyclobutyl]-3-(difluoromethyl)-1-methyl-1H-pyrazole-4-carboxamide]: the “log P” value was found to be 3.26.

Still in this data set, the particulars now being: method [b], HPLC reversed phase, pH 2.7.
Take `Cn1cc(C(=O)NC2CCCCC2c2ccccc2)c(C(F)F)n1` (centres unmarked) [Example 186]: the logP is 3.00^[b]. On the same count and under the same terms, the same measure for `O=C(N[C@@H]1CCC[C@H]1c1ccc(F)c(F)c1)c1ccccc1I` (relative stereo) [Example 131]: 3.56^[b]. Still for that read-out and setting: the result for `Cn1nc(C(F)F)c(C(=O)NC2CC2c2ccccc2C(F)(F)F)c1Cl` (centres unmarked) [Example 193] reads 3.15^[b]. Same read-out and setting: the result for `CCc1nn(C)c(F)c1C(=O)N(C1CC1)C1CCCC1c1ccccc1Cl` (centres unmarked) [Example 172] reads 4.21^[b]; that for `Cn1cc(C(=O)NC2CC2c2ccccc2Cl)c(C(F)F)n1` (centres unmarked) [Example 231], 2.45^[b]; that for `Cn1cc(C(=O)N(C2CC2)C2CCCCC2c2ccccc2)c(C(F)F)n1` (centres unmarked) [Example 138], 3.60^[b]. Take `Cn1cc(C(=O)N(C2CC2)C2CCCCC2c2ccccc2)c(C(F)(F)F)n1` (centres unmarked) [Example 142]: the logP was 3.96^[b]. On to `Cn1cc(C(=O)N(C2CC2)C2CCCCC2c2ccc(Cl)cc2Cl)c(C(F)F)n1` (centres unmarked) [Example 157], for which the logP is 4.59^[b].

Staying with this data set, now noted: reversed phase HPLC columns, pH 2.7, HPLC on reversed phase column, method [b], pH 2.7; read-out: logP.
For the compound `O=C(N[C@@H]1CC[C@H]1c1ccccc1C(F)(F)F)c1cccnc1Cl` [Example 620], the chromatographic logP amounted to 2.79.

The same data set, now with this note: reversed phase HPLC columns, pH 2.7, HPLC on reversed phase columns, method [b] (pH 2.7); read-out: logP.
As to `O=C(N[C@@H]1CC[C@@H]1c1c(Cl)cccc1Cl)c1ccccc1[N+](=O)[O-]` [Example 733], the chromatographic logP worked out at 3.08.
